Assay results published in ChEMBL document CHEMBL1641548, “Fused bicyclic derivatives of 2,4-diaminopyrimidine as c-Met inhibitors” (Bioorg Med Chem Lett, 2011).

Key:
Assay type in all cases: ADME, organism-based
[1] = Clearance in rat at 1 mg/kg, iv; set-up: dose 1 mg/kg, route intravenous; conditions: in vivo
[2] = AUC (0 to infinity) in rat at 1 mg/kg, iv; set-up: time infinity, dose 1 mg/kg, route intravenous; conditions: plasma
[3] = Half life in rat at 1 mg/kg, iv; set-up: dose 1 mg/kg, route intravenous; conditions: in vivo
[4] = AUC (0 to infinity) in rat at 5 mg/kg, po; set-up: time infinity, dose 5 mg/kg, route oral; conditions: plasma
[5] = Oral bioavailability in rat at 5 mg/kg, po; conditions: in vivo

A clearance [1] of 15 mL/min/kg, an AUC(0-inf) [2] of 1260 ng·h/mL and a half-life [3] of 42 min were found for `CNC(=O)c1cccc(F)c1Nc1nc(Nc2ccc3c(c2)NC(=O)CCC3)ncc1Cl` in this work. The AUC(0-inf) [4] was 592 ng·h/mL and the bioavailability [5] was 8%.
